Results published in patent US20220080026A1, “FORMULATIONS” (Sublimity Therapeutics Limited, priority 2013, published 2022).
Counter-ions that a name gives are not always drawn.

Conditions: heated at 60-70° C.

NNc1nncc2ccccc12 [Hydralazine HCl]
solubility in the aqueous phase of the formulation: fully soluble
